# Results as given in the METLIN SMRT retention time set (Domingo-Almenara et al. 2019).
# Assay: gradient 5% acetonitrile 3 min, to 50% in 2 min, to 85% in 15 min, held 3 min, 100 µL/min
# Conditions: column: Zorbax Extend-C18 2.1 x 50 mm; eluents: water / acetonitrile, 0.1% formic acid
# Summary of the method: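 The mobile phases were water and acetonitrile, each with 0.1% formic acid, pumped at 100 μL/min through a Zorbax Extend-C18 column (2.1 × 50 mm, 1.8 μm). Pure standards were injected as mixtures of ~100 molecules and detected by a quadrupole time-of-flight mass spectrometer in positive and negative ionization mode. Retention time came from computationally picked adduct peaks, each inspected by hand.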
row,RP-LC retention time [s],SMILES
1,867,CCOC(=O)c1c(NCc2ccccc2Cl)c2cccc(Cl)c2[nH]c1=O
2,784,O=C(NCCc1ccco1)c1c(-c2ccccc2)nnc2ccccc12
3,735,CCOC(=O)C1CCC(CNC(=O)N2CCN(Cc3nc4cc(C)ccc4o3)CC2)CC1 (stereo unspecified)
4,1120,COc1ccc(-c2nn3c(-c4ccc(N(C)C)cc4)nnc3s2)cc1
5,724,Cc1cccc(CNC(=O)c2[nH]c3cc(C)sc3c2CN2CCOCC2)c1
6,862,CC1=C(C(=O)OCCc2ccccc2)C(c2ccc(F)cc2)NC(=O)N1 (stereo unspecified)
7,1070,O=c1ccc(-c2nc(-c3ccc(F)cc3)no2)nn1Cc1ccccc1F
8,825,Cc1cc2c(cc1S(=O)(=O)N1CCCC1C(=O)N1CCc3ccccc31)OC(C)C(=O)N2 (stereo unspecified)
9,935,CC(C)n1c(=O)sc2cc(S(=O)(=O)N3CCC(C(=O)NC4CCCCC4)CC3)ccc21
10,1050,Cc1noc(/C=C/c2ccc(F)cc2F)c1S(=O)(=O)N1CCC(C(=O)Nc2nccs2)CC1
11,785,Cc1cccc(-c2ncccc2CNS(=O)(=O)c2ccc(Cl)s2)c1
12,885,Cc1nc(-c2noc(-c3ccncc3)n2)cn1CC(=O)NCc1ccc(F)cc1
13,908,O=C(Cn1c(=O)cc(-c2nc(C3CC3)no2)c2ccccc21)Nc1ccc2c(c1)OCO2
14,766,COc1ccc(-c2c(C)noc2NC(C)=O)cc1S(=O)(=O)Nc1ccc(Cl)cc1
15,649,C=CCNC(=O)[C@@H]1[C@H](c2cc(OC)c(OC)c(OC)c2)c2cc3c(cc2[C@H](O)[C@H]1CO)OCO3
16,1140,CCCCNC(=O)c1cn(CCC)nc1S(=O)(=O)N1CCN(c2ccccc2OCC)CC1
17,787,Cc1cccc(CC(=O)N2C[C@@H]3C[C@H](NC(=O)c4cccs4)[C@H]2C3)c1
18,700,COc1ccc(CNC(=O)C2(C)CCN(C(=O)NCc3ccco3)CC2)cc1
19,838,CC(C)CN1CCn2cc(S(=O)(=O)NCc3ccc(F)cc3Cl)cc2C1=O
20,668,Cc1cc(=O)n(CC(=O)Nc2ccc(C)c(C)c2)c(N2CCCC2)n1
21,977,Cc1nc(-c2csc(S(=O)(=O)N3CCCC(C(=O)N4CCc5ccccc5C4)C3)c2)no1 (stereo unspecified)
22,1180,CC(C)c1ccc(-c2noc(N3CCC(C(=O)N4CCCCCC4)CC3)n2)cc1

row,RP-LC retention time [s],SMILES
1,578,CCN(CC)c1ccc(NC(=O)C2CCCN(S(=O)(=O)c3cn(CC)cn3)C2)c(C)c1 (stereo unspecified)
2,750,COc1ccc(NC(=O)c2nc(C)oc2C)cc1OC
3,1100,CC(CCc1ccccc1)NC(=O)C1CCCN(c2nccnc2Oc2ccccc2)C1 (stereo unspecified)
4,908,O=C(NCCc1csc(-c2ccc(F)cc2)n1)c1ccc2c(c1)OCO2
5,614,CCC(=O)NCc1nc2c(n1CC)CN(C(=O)c1ccc(C(F)(F)F)cc1)CC2
6,710,Cc1[nH]c(C)c(S(=O)(=O)N2CCC(C(=O)Nc3ccc(F)cc3)CC2)c1C(=O)N1CCCC1
7,1150,Cc1cc(C)n(-c2ccnc(N3CCc4ccccc4C3)n2)n1
8,566,Cn1c(=O)n(C)c2cc(S(=O)(=O)NCC(=O)O)ccc21
9,1100,CCCn1cc(C(=O)Nc2ccc3c(c2)OCO3)c(=O)c2ccc(C)nc21
10,1330,Fc1cccc(-c2noc(Cc3nc(-c4ccc(Cl)cc4)cs3)n2)c1
11,692,COc1ccc(-c2nc3ncccn3c2NCc2ccc(F)cc2)cc1OC
12,1270,CCCc1ccc(S(=O)(=O)N2CCCC2c2nc(-c3cccc(F)c3)no2)cc1 (stereo unspecified)
13,703,CCN(CC)C(=O)c1cc2c(s1)CCC(C(=O)O)C2 (stereo unspecified)
14,924,CN(CCc1noc(-c2ccc(F)cc2)n1)C(=O)Nc1cc(F)ccc1F
15,818,COc1ccc(Cn2cc(S(=O)(=O)N3CCCCCC3)ccc2=O)cc1
16,760,CCN1N=C(C(=O)N2CCOCC2)S(=O)(=O)c2cc(Cl)ccc21
17,577,CCOc1ccc2nc(C(=O)NCCN3CCc4ccccc4C3)cn2n1
18,775,Cn1cc(-c2cc3n(n2)CCC(=O)N3CCCC(=O)NCc2ccco2)c2ccccc21
19,971,O=C(CCC1CCN(S(=O)(=O)c2ccccc2)CC1)NCC1CCCCC1
20,1050,Cn1c(C(=O)NCCC2=CCCCC2)cc2c(=O)oc3ccccc3c21
21,559,CCN(CC)CCCNC(=O)CCc1c(-c2ccc(Br)cc2)nc2ccccn12
22,571,COCCCNC(=O)C1CN(C(=O)c2ccccc2)CC12CCCCC2 (stereo unspecified)

row,RP-LC retention time [s],SMILES
1,840,O=C(Cn1c(=O)c2cccn2c2ccc(F)cc21)N1CCCCCC1
2,601,Cc1ccc(C)c(N2C(=O)CC(N3CCC(C(N)=O)CC3)C2=O)c1 (stereo unspecified)
3,978,CCOc1cc(C(=O)N2CCCC(C)(C(=O)NCc3ccc(F)cc3)C2)cc(OCC)c1OCC (stereo unspecified)
4,1040,COc1cc(C(=O)Nc2nc(-c3ccc(F)cc3)cs2)cc(OC)c1OC
5,734,CCN1CCN(c2ccc(-c3nc(-c4cccc(C)c4)no3)cn2)CC1
6,856,COc1ccc(-c2nc(NC3CCCCC3)c3ccccc3n2)cc1
7,830,CC(C)NC(=O)c1ccc(OCC2CCCN(C(=O)c3ccccc3F)C2)cc1 (stereo unspecified)
8,763,Cc1oc(-c2[nH]ncc2C(=O)N(C)C)cc1S(=O)(=O)Nc1cccc(C(F)(F)F)c1
9,640,Cc1cc(C)c2nc(Nc3nccc(C)n3)nc(C)c2c1
10,589,CCN1CCN(CCNC(=O)Cn2c(=O)c3cccn3c3ccc(F)cc32)CC1
11,1150,CCc1nc(-c2csc(S(=O)(=O)N3CCC(C(=O)Nc4ccc(F)c(Cl)c4)CC3)c2)no1
12,926,CC1CCN(S(=O)(=O)c2ccc3c(c2)CCCC(=O)N3CC(=O)NCc2ccc(F)cc2)CC1
13,1150,CCOc1ccc(NC(=O)c2cc3c(=O)n(CC(C)C)c4ccccc4n3n2)cc1
14,595,COc1ccc(OC)c2nc3c(C(=O)NCCN(C)C)cccc3nc12
15,767,O=C(c1cn(-c2cc(-c3nc(C4CC4)no3)ccn2)cn1)N1CCCC1
16,850,CCC(C)NC(=O)CN1C(=O)C2CCCCN2c2ccc(S(=O)(=O)N3CCCC3)cc21 (stereo unspecified)
17,582,O=C(NCc1cccc(F)c1)c1ccc2c(c1)ncn2CCN1CCCC1
18,673,COc1cccc(CC(=O)NC2CCN(c3cc(-c4ccccc4)[nH]n3)C2)c1 (stereo unspecified)
19,647,CN(CCc1noc(C2CN(C(=O)c3ccsc3)C2)n1)C(=O)C1CC1
20,996,Cc1ccc(C)c(Cn2nc3ccc(S(=O)(=O)N4CCSCC4)cn3c2=O)c1

row,SMILES,RP-LC retention time [s]
1,CCC1CN1P(=O)(Oc1ccc(Cl)cc1)N1CC1CC (stereo unspecified),980
2,COc1ccc(CC(=O)N2CCC3(C2)C(=O)Nc2ccc(OC)cc23)cc1 (stereo unspecified),709
